System: anesthetized dogs
Assay: Myocardial oxygen consumption, coronary flow, cardiac output in anesthetized dogs, iv
Format: in vivo
Conditions: c3-c8 5,15,30,60,90,120 min after administration; for coronary artery resistance, x ± s / myocardial oxygen consumption, x ± s / total peripheral resistance (TPR), x ± s / cardiac output, x ± s / myocardial oxygen uptake, x ± s: c2 0 min before
Procedure: Isosorbide Dinitrate control group were medicated by continuous intravenous infusion and other groups by intravenous injection.
The animals were anesthetised with 3% pentobarbital sodium iv at the dose of 30 mg/kg. Tracheal intubation was performed and SC-M5 anesthesia respirator (manufactured by Shanghai Medical Instrument Factory, frequency: 16˜18 per min, tidal volume: 350˜550 ml) was connected. Bilateral femoral arteries were separated for blood sampling and analyzing and measurement of mean blood pressure. Thoracotomy at the fourth intercostal space was performed to expose the heart and to open the pericardium to make pericardial hammock. Ascending aortic root and upper part of left branch of anterior descending coronary artery were dissociated to put respectively probes of electromagnetic flowmeter (MFV-1100/1200, made by Japanese Nihon Kohden Company) to measure cardiac output and coronary artery flow rate. Right jugular vein was separated for insertion of a cardiac catheter that was guided into coronary venous sinuses before fixation. Synchronously, blood was sampled by drawing from coronary sinus and femoral artery (0.5% heparin was added for anticoagulation). pO2 and pH were detected with a blood gas analyzer (DH-1830 Blood Gas Acid-base Analyze, Nanjing Ananalysis Apparatus Factor) and the values were converted to artery and venous oxygen content. After intravenous infusion of control solvent or the drug, constant infusion for all groups was completed with an electronic constant flow pump (SH-88AB Controllable Intravenous Injector made by Quanzhou Lizhong Electronic Medical Instrument Factory). Both artery and venous blood gas before administration or 5, 15, 30, 60, 90 and 120 min after administration was analyzed and mean blood pressure and cardiac output at 0, 5, 15, 30, 60, 90 and 120 min were observed.
Myocardial oxygen consumption(ml/min/100 g)=coronary flow ml/min/100 g×artery oxygen−coronary sinus oxygen ml %).
Myocardial oxygen uptake (%)=(artery oxygen ml %−coronary sinus oxygen ml %)/artery oxygen ml %
Total peripheral resistance of general circulation(dyn·s·cm−5)=mean arterial blood pressure[MAP(KPa)]×80/cardiac output[CO(L/min)]=mean arterial blood pressure[MAP(mmHg)]×10.6/cardiac output[CO(L/min)]
Coronary resistance[Kpa/ml/min]=mean arterial blood pressure[MAP(KPa)]/coronary artery flow.

[1] = TSG 2.5 mg/kg iv, 0 min, before administration
[2] = TSG 2.5 mg/kg iv, 5 min after administration
[3] = TSG 2.5 mg/kg iv, 15 min after administration
[4] = TSG 2.5 mg/kg iv, 30 min after administration
[5] = TSG 2.5 mg/kg iv, 60 min after administration
[6] = TSG 2.5 mg/kg iv, 90 min after administration
[7] = TSG 2.5 mg/kg iv, 120 min after administration
[8] = TSG 2.5 mg/kg iv, before administration, 0 min
[9] = TSG 5 mg/kg iv, 0 min, before administration
[10] = TSG 5 mg/kg iv, 5 min after administration
[11] = TSG 5 mg/kg iv, 15 min after administration
[12] = TSG 5 mg/kg iv, 30 min after administration
[13] = TSG 5 mg/kg iv, 60 min after administration
[14] = TSG 5 mg/kg iv, 90 min after administration
[15] = TSG 5 mg/kg iv, 120 min after administration

3,4′,5-trihydroxy-stilbene-3-β-D-glucoside [TSG]
coronary artery resistance, x ± s [1]: 0.268 ± 0.050 Kpa/ml/min
myocardial oxygen consumption, x ± s [1]: 214.6 ± 5.24 mL/min.100 g^−1
total peripheral resistance (TPR), x ± s [1]: 888.8 ± 200.9 dyn·s·cm^−5
cardiac output, x ± s [2]: 1.09 ± 0.12 L/min
coronary artery resistance, x ± s [2]: 0.269 Kpa/ml/min
myocardial oxygen consumption, x ± s [2]: 215.5 ± 8.73 mL/min.100 g^−1
myocardial oxygen uptake, x ± s [2]: 77.4%
total peripheral resistance (TPR), x ± s [2]: 873.5 ± 210.3 dyn·s·cm^−5
cardiac output, x ± s [3]: 1.09 ± 0.14 L/min
coronary artery resistance, x ± s [3]: 0.266 ± 0.049 Kpa/ml/min
total peripheral resistance (TPR), x ± s [3]: 888.7 ± 208.8 dyn·s·cm^−5
cardiac output, x ± s [4]: 1.10 ± 0.13 L/min
coronary artery resistance, x ± s [4]: 0.257 ± 0.054 Kpa/ml/min
myocardial oxygen consumption, x ± s [4]: 218.2 ± 6.85 mL/min.100 g^−1
myocardial oxygen uptake, x ± s [4]: 74.2 ± 5.11%
total peripheral resistance (TPR), x ± s [4]: 869.1 ± 249.3 dyn·s·cm^−5
cardiac output, x ± s [5]: 1.11 ± 0.13 L/min
coronary artery resistance, x ± s [5]: 0.261 ± 0.051 Kpa/ml/min
myocardial oxygen consumption, x ± s [5]: 218.0 ± 8.95 mL/min.100 g^−1
myocardial oxygen uptake, x ± s [5]: 73.1 ± 6.16%
total peripheral resistance (TPR), x ± s [5]: 890.2 ± 240.3 dyn·s·cm^−5
coronary artery resistance, x ± s [6]: 0.267 ± 0.054 Kpa/ml/min
myocardial oxygen consumption, x ± s [6]: 214.1 ± 8.39 mL/min.100 g^−1
myocardial oxygen uptake, x ± s [6]: 75.0 ± 6.24%
total peripheral resistance (TPR), x ± s [6]: 877.6 ± 225.1 dyn·s·cm^−5
cardiac output, x ± s [7]: 1.10 ± 0.14 L/min
coronary artery resistance, x ± s [7]: 0.271 ± 0.055 Kpa/ml/min
total peripheral resistance (TPR), x ± s [7]: 868.6 ± 221.8 dyn·s·cm^−5
cardiac output, x ± s [8]: 1.06 ± 0.13 L/min
myocardial oxygen uptake, x ± s [8]: 76.9 ± 5.50%
cardiac output, variation % [2]: 2.50 ± 2.42%
coronary artery resistance, variation % [2]: 0.81%
myocardial oxygen consumption, variation % [2]: 0.40 ± 3.16%
myocardial oxygen uptake, variation % [2]: 0.72%
total peripheral resistance (TPR), variation % [2]: −1.89 ± 6.74%
cardiac output, variation % [3]: 1.97 ± 1.55%
coronary artery resistance, variation % [3]: −0.34 ± 2.36%
total peripheral resistance (TPR), variation % [3]: −0.10 ± 4.21%
cardiac output, variation % [4]: 3.88 ± 3.48%
coronary artery resistance, variation % [4]: −3.82 ± 9.83%
myocardial oxygen consumption, variation % [4]: 1.66 ± 1.48%
myocardial oxygen uptake, variation % [4]: −3.47 ± 1.59%
total peripheral resistance (TPR), variation % [4]: −3.22 ± 9.65%
cardiac output, variation % [5]: 4.41 ± 1.40%
coronary artery resistance, variation % [5]: −2.48 ± 8.17%
myocardial oxygen consumption, variation % [5]: 1.57 ± 2.94%
myocardial oxygen uptake, variation % [5]: −4.99 ± 3.01 %
total peripheral resistance (TPR), variation % [5]: −0.56 ± 7.52%
cardiac output, variation % [6]: 4.40 ± 1.64%
coronary artery resistance, variation % [6]: −0.24 ± 10.72%
myocardial oxygen consumption, variation % [6]: −0.25 ± 2.84%
myocardial oxygen uptake, variation % [6]: −2.58 ± 2.67 %
total peripheral resistance (TPR), variation % [6]: −1.52 ± 9.42%
cardiac output, variation % [7]: 3.23 ± 2.57%
coronary artery resistance, variation % [7]: 1.19 ± 6.55%
total peripheral resistance (TPR), variation % [7]: −2.58 ± 7.26%
coronary artery resistance, x ± s [9]: 0.299 ± 0.029 Kpa/ml/min
myocardial oxygen consumption, x ± s [9]: 211.4 ± 4.05 mL/min.100 g^−1
total peripheral resistance (TPR), x ± s [9]: 906.3 ± 193.9 dyn·s·cm^−5
cardiac output, x ± s [10]: 1.13 ± 0.12 L/min
coronary artery resistance, x ± s [10]: 0.308 Kpa/ml/min
myocardial oxygen consumption, x ± s [10]: 210.4 ± 6.48 mL/min.100 g^−1
myocardial oxygen uptake, x ± s [10]: 79.6%
total peripheral resistance (TPR), x ± s [10]: 897.1 ± 184.7 dyn·s·cm^−5
cardiac output, x ± s [11]: 1.13 ± 0.13 L/min
coronary artery resistance, x ± s [11]: 0.305 ± 0.029 Kpa/ml/min
total peripheral resistance (TPR), x ± s [11]: 916.6 ± 186.2 dyn·s·cm^−5
cardiac output, x ± s [12]: 1.15 ± 0.14 L/min
coronary artery resistance, x ± s [12]: 0.299 ± 0.026 Kpa/ml/min
myocardial oxygen consumption, x ± s [12]: 210.2 ± 8.65 mL/min.100 g^−1
myocardial oxygen uptake, x ± s [12]: 74.8 ± 5.66%
total peripheral resistance (TPR), x ± s [12]: 915.2 ± 199.9 dyn·s·cm^−5
cardiac output, x ± s [13]: 1.16 ± 0.14 L/min
coronary artery resistance, x ± s [13]: 0.288 ± 0.026 Kpa/ml/min
myocardial oxygen consumption, x ± s [13]: 212.9 ± 7.2 mL/min.100 g^−1
myocardial oxygen uptake, x ± s [13]: 74.5 ± 6.05%
total peripheral resistance (TPR), x ± s [13]: 907.8 ± 194.0 dyn·s·cm^−5
cardiac output, x ± s [14]: 1.16 ± 0.13 L/min
coronary artery resistance, x ± s [14]: 0.287 ± 0.028 Kpa/ml/min
myocardial oxygen consumption, x ± s [14]: 209.6 ± 9.01 mL/min.100 g^−1
myocardial oxygen uptake, x ± s [14]: 75.1 ± 6.48%
total peripheral resistance (TPR), x ± s [14]: 891.7 ± 188.6 dyn·s·cm^−5
cardiac output, x ± s [15]: 1.14 ± 0.13 L/min
coronary artery resistance, x ± s [15]: 0.287 ± 0.031 Kpa/ml/min
total peripheral resistance (TPR), x ± s [15]: 881.8 ± 188.9 dyn·s·cm^−5

— patent publication US20080176810A1, “Use of 3, 4', 5-Trihydroxy-Stilbene-3-Beta-D-glucoside in Prepartion of Medicines For Treating and/or Preventing Ischemic Heart Disease” (SHENZHEN NEPTUNUS PHARMACEUTICAL CO., LTD., priority 2004, published 2008)
